Activity calls are given as the source filed them. The rule behind the calls is not given here.
How the values were obtained:
HeLa [1] = assay: Reduction in Beta tubulin mRNA expression in human HeLa cells at 1 uM measured upto 16 hrs by qPCR analysis; type: functional, cell-based
[2] = target: T1, Tubulin alpha (Homo sapiens) (UniProt P0DPH7+P68366+Q71U36+P68363+Q9BQE3+Q6PEY2+A6NHL2+Q9NY65); assay: Induction of Alpha tubulin degradation in human HCT-116 cells incubated for 24 hrs by immunoblot analysis; type: cell-based; details: dose 0.3-30 µM, DDE = dose-dependent effect
[3] = target: T2, Tubulin beta (Homo sapiens) (UniProt P68371+Q9H4B7+Q13509+P04350+Q3ZCM7+P07437+Q13885+Q9BVA1+Q9BUF5+A6NNZ2); assay: Induction of Beta tubulin degradation in human HeLa cells incubated for 24 hrs by immunoblot analysis; type: cell-based; details: DDE = dose-dependent effect
HeLa [4] = assay: Reduction in Alpha tubulin mRNA expression in human HeLa cells at 1 uM measured upto 16 hrs by qPCR analysis; type: functional, cell-based
[5] = target: T2, Tubulin beta (Homo sapiens); assay: Induction of Beta tubulin degradation in human HeLa cells at 1 uM incubated for 16 hrs in presence of pironetin by immunoblot analysis; type: cell-based
Tubulin (Homo sapiens) = Tubulin (Homo sapiens) (UniProt P68371+Q9H4B7+P0DPH7+P68366+Q13509+Q71U36+P04350+Q3ZCM7+P07437+P68363+Q9BQE3+Q6PEY2+Q13885+Q9BVA1+Q9BUF5); assay: Induction of tubulin denaturation (unknown origin) pre incubated for 2 to 8 hrs with compound followed by GH addition measured after 30 mins by spectrophotometer based microplate reader method; type: protein-complex assay; details: time 2.5-8.5 hrs
[6] = target: T1, Tubulin alpha (Homo sapiens); assay: Induction of Alpha tubulin degradation in human HeLa cells incubated for 24 hrs by immunoblot analysis; type: cell-based; details: DDE = dose-dependent effect
[7] = target: T1, Tubulin alpha (Homo sapiens); assay: Induction of Alpha tubulin degradation in human HeLa cells at 1 uM incubated for 16 hrs in presence of maytansine by immunoblot analysis; type: cell-based
[8] = target: T2, Tubulin beta (Homo sapiens); assay: Induction of Beta tubulin degradation in human HCT-116 cells incubated for 24 hrs by immunoblot analysis; type: cell-based; details: dose 0.3-30 µM, DDE = dose-dependent effect
Tubulin (Sus scrofa) = Tubulin (Sus scrofa) (UniProt P02554+P02550); assay: Induction of porcine tubulin aggregation assessed as formation of spherical sized tubulin aggregates at 20 uM incubated for 4 hrs by TEM analysis; type: protein assay
[9] = target: T2, Tubulin beta (Homo sapiens); assay: Induction of Beta tubulin degradation in human HeLa cells at 0.001 to 100 uM incubated for 16 hrs by immunoblotting analysis; type: cell-based; details: dose 0.001-100 µM
HeLa [10] = assay: Antiproliferative activity against human HeLa cells assessed as cell viability at 0.001 to 100 uM incubated for 48 hrs by MTT assay; type: functional, cell-based; details: dose 0.001-100 µM

Chain of Tubulin (Sus scrofa) (P02550 whole entry, looked up): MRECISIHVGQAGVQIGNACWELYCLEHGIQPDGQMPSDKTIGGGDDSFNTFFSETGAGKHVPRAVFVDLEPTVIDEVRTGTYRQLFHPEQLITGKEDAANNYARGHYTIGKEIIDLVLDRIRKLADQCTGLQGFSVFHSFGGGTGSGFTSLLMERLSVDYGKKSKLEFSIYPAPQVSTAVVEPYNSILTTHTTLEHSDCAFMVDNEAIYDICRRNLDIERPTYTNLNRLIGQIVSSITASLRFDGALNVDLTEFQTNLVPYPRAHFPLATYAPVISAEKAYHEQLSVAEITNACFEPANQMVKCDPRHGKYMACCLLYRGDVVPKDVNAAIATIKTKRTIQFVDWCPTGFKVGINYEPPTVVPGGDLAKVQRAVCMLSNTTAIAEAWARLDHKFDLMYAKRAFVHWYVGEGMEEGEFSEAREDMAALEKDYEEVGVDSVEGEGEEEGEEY
Chain of Tubulin (Sus scrofa) (P02554 whole entry, looked up): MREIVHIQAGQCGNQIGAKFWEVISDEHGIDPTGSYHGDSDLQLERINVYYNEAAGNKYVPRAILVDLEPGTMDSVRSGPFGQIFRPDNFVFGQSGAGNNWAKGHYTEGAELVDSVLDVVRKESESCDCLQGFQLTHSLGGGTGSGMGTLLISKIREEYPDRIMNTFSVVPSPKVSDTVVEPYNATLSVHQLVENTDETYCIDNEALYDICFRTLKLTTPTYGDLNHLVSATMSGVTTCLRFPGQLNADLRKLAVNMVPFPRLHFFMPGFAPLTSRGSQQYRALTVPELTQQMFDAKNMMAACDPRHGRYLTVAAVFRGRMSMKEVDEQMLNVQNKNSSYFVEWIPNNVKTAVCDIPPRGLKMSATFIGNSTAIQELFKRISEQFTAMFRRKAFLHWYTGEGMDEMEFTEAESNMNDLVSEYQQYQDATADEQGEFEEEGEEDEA

Activity [2]	Activity [3]	Activity [5]	Activity (Tubulin (Homo sapiens))	Activity [6]	Activity [7]	Activity [8]	Activity (Tubulin (Sus scrofa))	Activity [9]	Structure (SMILES)	Activity (HeLa [1])	Activity (HeLa [4])	Activity (HeLa [10])
Dde	Dde	Active	Active	Dde	Active	Dde	Active		COc1cccc(-c2cc(NCc3ccc4c(c3)OCO4)nc(N)n2)c1	Active	Active	
								Active	c1ccc(CNc2cc3c(cn2)[nH]c2ccccc23)cc1			Active

Reference: ChEMBL document CHEMBL5143724, “Small Molecules Promote Selective Denaturation and Degradation of Tubulin Heterodimers through a Low-Barrier Hydrogen Bond” (J Med Chem, 2022)
